Data from patent publication US10072011B2, “Substituted bridged urea analogs as sirtuin modulators” (GlaxoSmithKline Intellectual Property (No.2) Limited, priority 2014, dated 2018).
Like-named read-outs stand apart in the source and are kept apart here.

Target: T1, SIRT1 (Homo sapiens, UniProt Q96EB6)
T1 sequence (Q96EB6 1-747): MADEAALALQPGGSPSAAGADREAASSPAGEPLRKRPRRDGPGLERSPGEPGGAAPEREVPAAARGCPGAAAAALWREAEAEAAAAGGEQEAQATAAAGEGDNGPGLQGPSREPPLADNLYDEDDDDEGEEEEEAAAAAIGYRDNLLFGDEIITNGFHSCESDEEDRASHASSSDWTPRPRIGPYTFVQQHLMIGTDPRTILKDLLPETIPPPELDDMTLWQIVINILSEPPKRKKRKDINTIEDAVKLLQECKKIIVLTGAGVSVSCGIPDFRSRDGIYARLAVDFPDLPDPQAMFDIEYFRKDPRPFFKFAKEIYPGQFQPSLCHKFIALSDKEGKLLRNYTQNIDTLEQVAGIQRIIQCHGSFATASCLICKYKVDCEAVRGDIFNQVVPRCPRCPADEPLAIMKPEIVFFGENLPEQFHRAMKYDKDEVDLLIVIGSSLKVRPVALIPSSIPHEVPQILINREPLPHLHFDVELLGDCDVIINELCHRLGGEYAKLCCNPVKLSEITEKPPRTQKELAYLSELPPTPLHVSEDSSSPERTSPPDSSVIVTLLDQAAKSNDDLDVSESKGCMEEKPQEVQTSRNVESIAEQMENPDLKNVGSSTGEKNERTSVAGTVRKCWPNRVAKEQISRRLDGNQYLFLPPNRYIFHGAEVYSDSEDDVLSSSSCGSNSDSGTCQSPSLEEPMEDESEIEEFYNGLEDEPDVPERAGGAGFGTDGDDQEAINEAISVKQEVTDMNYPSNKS
Test: Trp mass spectrometry assay of SIRT1 activation (Ac-R-H-K-K(Ac)-W-NH2 peptide)
Type: biochemical
Details: for Emax: 25 min, read-out: TRP MAX RESP (percent maximum fold activation)
In short: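 Mass spectrometry read-out (OAADPR formed, or deacetylated Trp peptide) after a 25 min NAD-dependent deacetylation by E. coli-expressed His-SIRT1, stopped with formic acid.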

[1] = Trp peptide 0.5 μM, 120 μM βNAD+, 10 nM SIRT1, 25 min at 25° C., relative to control (100%)
[2] = Trp peptide 0.5 μM, 120 μM βNAD+, 10 nM SIRT1, 25 min at 25° C.

## C[C@@H](NC(=O)c1ccc2c(n1)N(C(=O)Nc1cc(OC[C@H](O)CO)ncn1)[C@H]1CCN2C1)C(F)(F)F [Example 189, (4S)—N5-(6-((R)-2,3-dihydroxypropoxy)pyrimidin-4-yl)-N7-((R)-1,1,1-trifluoropropan-2-yl)-3,4-dihydro-1,4-methanopyrido[2,3-b][1,4]diazepine-5,7(2H)-dicarboxamide]
[1]
  Emax: > 150%
[2]
  TRP Activity (EC1.5, concentration of test compound that results in 150% activation of SIRT1): A (EC1.5<1 μM)

## C[C@@H](NC(=O)c1ccc2c(n1)N(C(=O)Nc1ccsn1)[C@H]1CCN2C1)C(F)(F)F [Example 190, (4S)—N5-(isothiazol-3-yl)-N7-((R)-1,1,1-trifluoropropan-2-yl)-3,4-dihydro-1,4-methanopyrido[2,3-b][1,4]diazepine-5,7(2H)-dicarboxamide]
[1]
  Emax: > 150%
[2]
  TRP Activity (EC1.5, concentration of test compound that results in 150% activation of SIRT1): A (EC1.5<1 μM)

## C[C@@H](NC(=O)c1ccc2c(n1)N(C(=O)Nc1nccs1)[C@H]1CCN2C1)C(F)(F)F [Example 191, (4S)—N5-(thiazol-2-yl)-N7-((R)-1,1,1-trifluoropropan-2-yl)-3,4-dihydro-1,4-methanopyrido[2,3-b][1,4]diazepine-5,7(2H)-dicarboxamide]
[1]
  Emax: > 150%
[2]
  TRP Activity (EC1.5, concentration of test compound that results in 150% activation of SIRT1): A (EC1.5<1 μM)

## C[C@@H](NC(=O)c1ccc2c(n1)N(C(=O)Nc1cc3nc[nH]c3cn1)[C@H]1CCN2C1)C(F)(F)F [Example 192, (4S)—N5-(3H-imidazo[4,5-c]pyridin-6-yl)-N7-((R)-1,1,1-trifluoropropan-2-yl)-3,4-dihydro-1,4-methanopyrido[2,3-b][1,4]diazepine-5,7(2H)-dicarboxamide]
[1]
  Emax: > 150%
[2]
  TRP Activity (EC1.5, concentration of test compound that results in 150% activation of SIRT1): A (EC1.5<1 μM)

## C[C@@H](NC(=O)c1ccc2c(n1)N(C(=O)Nc1ccc(OC[C@H](O)CO)nn1)[C@H]1CCN2C1)C(F)(F)F [Example 193, (4S)—N5-(6-((R)-2,3-dihydroxypropoxy)pyridazin-3-yl)-N7-((R)-1,1,1-trifluoropropan-2-yl)-3,4-dihydro-1,4-methanopyrido[2,3-b][1,4]diazepine-5,7(2H)-dicarboxamide]
[1]
  Emax: > 150%
[2]
  TRP Activity (EC1.5, concentration of test compound that results in 150% activation of SIRT1): A (EC1.5<1 μM)

## C[C@@H](NC(=O)c1ccc2c(n1)N(C(=O)Nc1cnc(OC[C@H](O)CO)cn1)[C@H]1CCN2C1)C(F)(F)F [Example 194, (4S)—N5-(5-((R)-2,3-dihydroxypropoxy)pyrazin-2-yl)-N7-((R)-1,1,1-trifluoropropan-2-yl)-3,4-dihydro-1,4-methanopyrido[2,3-b][1,4]diazepine-5,7(2H)-dicarboxamide]
[1]
  Emax: > 150%
[2]
  TRP Activity (EC1.5, concentration of test compound that results in 150% activation of SIRT1): A (EC1.5<1 μM)

## O=C(NCc1nccs1)c1ccc2c(n1)N(C(=O)Nc1cc(OC[C@H](O)CO)ccn1)[C@H]1CCN2C1 [Example 195, (4S)—N5-(4-((R)-2,3-dihydroxypropoxy)pyridin-2-yl)-N7-(thiazol-2-ylmethyl)-3,4-dihydro-1,4-methanopyrido[2,3-b][1,4]diazepine-5,7(2H)-dicarboxamide]
[1]
  Emax: > 150%
[2]
  TRP Activity (EC1.5, concentration of test compound that results in 150% activation of SIRT1): B (EC1.5 1-25 μM)

## O=C(NCc1cscn1)c1ccc2c(n1)N(C(=O)Nc1cc(OC[C@H](O)CO)ccn1)[C@H]1CCN2C1 [Example 199, (4S)—N5-(4-((R)-2,3-dihydroxypropoxy)pyridin-2-yl)-N7-(thiazol-4-ylmethyl)-3,4-dihydro-1,4-methanopyrido[2,3-b][1,4]diazepine-5,7(2H)-dicarboxamide]
[1]
  Emax: > 150%
[2]
  TRP Activity (EC1.5, concentration of test compound that results in 150% activation of SIRT1): B (EC1.5 1-25 μM)

## CC(C)(CO)NC(=O)c1ccc2c(n1)N(C(=O)Nc1ccccn1)[C@H]1CCN2C1 [Example 200, (4S)—N7-(1-hydroxy-2-methylpropan-2-yl)-N5-(pyridin-2-yl)-3,4-dihydro-1,4-methanopyrido[2,3-b][1,4]diazepine-5,7(2H)-dicarboxamide]
[1]
  Emax: > 150%
[2]
  TRP Activity (EC1.5, concentration of test compound that results in 150% activation of SIRT1): B (EC1.5 1-25 μM)

## CN(C)NC(=O)c1ccc2c(n1)N(C(=O)Nc1ccccn1)[C@H]1CCN2C1 [Example 201, (4S)-7-(2,2-dimethylhydrazinecarbonyl)-N-(pyridin-2-yl)-3,4-dihydro-1,4-methanopyrido[2,3-b][1,4]diazepine-5(2H)-carboxamide]
  Emax: > 150%
[2]
  TRP Activity (EC1.5, concentration of test compound that results in 150% activation of SIRT1): B (EC1.5 1-25 μM)

## CC(C)(O)CNC(=O)c1ccc2c(n1)N(C(=O)Nc1ccccn1)[C@H]1CCN2C1 [Example 202, (4S)—N7-(2-hydroxy-2-methylpropyl)-N5-(pyridin-2-yl)-3,4-dihydro-1,4-methanopyrido[2,3-b][1, 4] diazepine-5,7(2H)-dicarboxamide]
[1]
  Emax: > 150%
[2]
  TRP Activity (EC1.5, concentration of test compound that results in 150% activation of SIRT1): B (EC1.5 1-25 μM)

## C[C@@H](O)CNC(=O)c1ccc2c(n1)N(C(=O)Nc1ccccn1)[C@H]1CCN2C1 [Example 203, (4S)—N7-((R)-2-hydroxypropyl)-N5-(pyridin-2-yl)-3,4-dihydro-1,4-methanopyrido[2,3-b][1,4]diazepine-5,7(2H)-dicarboxamide]
[1]
  Emax: > 150%
[2]
  TRP Activity (EC1.5, concentration of test compound that results in 150% activation of SIRT1): B (EC1.5 1-25 μM)

## O=C(NC1CC1)c1ccc2c(n1)N(C(=O)Nc1ncccn1)[C@H]1CCN2C1 [Example 204, (4S)—N7-cyclopropyl-N5-(pyrimidin-2-yl)-3,4-dihydro-1,4-methanopyrido[2,3-b][1,4]diazepine-5,7(2H)-dicarboxamide]
[1]
  Emax: > 150%
[2]
  TRP Activity (EC1.5, concentration of test compound that results in 150% activation of SIRT1): B (EC1.5 1-25 μM)

## Cc1nc(NC(=O)N2c3nc(C(=O)NC4CC4)ccc3N3CC[C@H]2C3)ccc1F [Example 205, (4S)—N7-cyclopropyl-N5-(5-fluoro-6-methylpyridin-2-yl)-3,4-dihydro-1,4-methanopyrido[2,3-b][1,4]diazepine-5,7(2H)-dicarboxamide]
[1]
  Emax: > 150%
[2]
  TRP Activity (EC1.5, concentration of test compound that results in 150% activation of SIRT1): B (EC1.5 1-25 μM)

## O=C(NC1CCC1)c1ccc2c(n1)N(C(=O)Nc1cnccn1)[C@H]1CCN2C1 [Example 206, (4S)—N7-cyclobutyl-N5-(pyrazin-2-yl)-3,4-dihydro-1,4-methanopyrido[2,3-b][1,4]diazepine-5,7(2H)-dicarboxamide]
[1]
  Emax: > 150%
[2]
  TRP Activity (EC1.5, concentration of test compound that results in 150% activation of SIRT1): B (EC1.5 1-25 μM)

## C[C@H](NC(=O)c1ccc2c(n1)N(C(=O)Nc1ccccn1)[C@H]1CCN2C1)C(F)(F)F [Example 207, (4S)—N5-(pyridin-2-yl)-N7-((S)-1,1,1-trifluoropropan-2-yl)-3,4-dihydro-1,4-methanopyrido[2,3-b][1,4]diazepine-5,7(2H)-dicarboxamide]
[1]
  Emax: > 150%
[2]
  TRP Activity (EC1.5, concentration of test compound that results in 150% activation of SIRT1): B (EC1.5 1-25 μM)

## O=C(NC[C@@H]1CCCO1)c1ccc2c(n1)N(C(=O)Nc1ccccn1)[C@H]1CCN2C1 [Example 208, (4S)—N5-(pyridin-2-yl)-N7-(((S)-tetrahydrofuran-2-yl)methyl)-3,4-dihydro-1,4-methanopyrido[2,3-b][1,4]diazepine-5,7(2H)-dicarboxamide]
[1]
  Emax: > 150%
[2]
  TRP Activity (EC1.5, concentration of test compound that results in 150% activation of SIRT1): B (EC1.5 1-25 μM)

## CC(C)(CCO)NC(=O)c1ccc2c(n1)N(C(=O)Nc1ccccn1)[C@H]1CCN2C1 [Example 209, (4S)—N7-(4-hydroxy-2-methylbutan-2-yl)-N5-(pyridin-2-yl)-3,4-dihydro-1,4-methanopyrido[2,3-b][1, 4] diazepine-5, 7(2H)-dicarboxamide]
[1]
  Emax: > 150%
[2]
  TRP Activity (EC1.5, concentration of test compound that results in 150% activation of SIRT1): B (EC1.5 1-25 μM)

## C[C@H](O)CNC(=O)c1ccc2c(n1)N(C(=O)Nc1ccccn1)[C@H]1CCN2C1 [Example 211, (4S)—N7-((S)-2-hydroxypropyl)-N5-(pyridin-2-yl)-3,4-dihydro-1,4-methanopyrido[2,3-b][1,4]diazepine-5,7(2H)-dicarboxamide]
[1]
  Emax: > 150%
[2]
  TRP Activity (EC1.5, concentration of test compound that results in 150% activation of SIRT1): B (EC1.5 1-25 μM)

## CNC(=O)c1ccc2c(n1)N(C(=O)Nc1ccccn1)[C@H]1CCN2C1 [Example 212, (4S)—N7-methyl-N5-(pyridin-2-yl)-3,4-dihydro-1,4-methanopyrido[2,3-b][1,4]diazepine-5,7(2H)-dicarboxamide]
[1]
  Emax: > 150%
[2]
  TRP Activity (EC1.5, concentration of test compound that results in 150% activation of SIRT1): B (EC1.5 1-25 μM)
